The record followed here is PubChem BioAssay (NCI).

Test in all cases: inhibition of tumour cell growth, NCI panel, 48 h
Experiment [1] has as its system UACC-62 melanoma.
The subject of experiment [2] is HCC-2998 colon.
Experiment [3] has as its system EKVX NSCLC.
The subject of experiment [4] is SK-MEL-5 melanoma.
In experiment [5] the test system is PC-3 prostate.
In experiment [6] the test system is HCT-15 colon.
The subject of experiment [7] is 786-0 renal.
Experiment [8] relates to MCF7 breast.
Experiment [9] deals with U251 CNS.
The subject of experiment [10] is HT29 colon.

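Dose response: 5 concentrations. Exposure: 48 h. Format: 96-well plates. Endpoint: linear interpolation; highest concentration if not reached. The concentration for 50% growth inhibition is given as GI50. TGI: concentration producing complete growth inhibition.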

Take `CO/[N+]([O-])=C\C(=O)N/C=C/C(=O)O`: the TGI in [1], in experiment [2], in experiment [3], in experiment [4], in [5] and in experiment [6] was over 100 µM in each case. In addition, the TGI in experiment [7], in experiment [8] and in [9] was over 100 µM throughout.
In the case of `COc1cccc(Cn2c(-c3nonc3N)nc3ccccc32)c1`, the GI50 in experiment [1] is 0.493 µM; in experiment [10], 0.345 µM; in experiment [2] it was 1.47 µM; in [4], 0.375 µM; in experiment [5], 0.435 µM; in [6] it was 0.399 µM. Also, the GI50 in [7] is 0.569 µM; in experiment [8] it was 0.383 µM; in experiment [9], 0.436 µM. Moreover, the TGI in [1] is over 100 µM; in experiment [2], over 100 µM; in experiment [4], over 70.5 µM; in experiment [5], over 84.2 µM; in experiment [6], over 100 µM; in experiment [7], over 100 µM. Besides, the TGI in [8] is over 100 µM; in [9] it was over 92.2 µM.
Consider `CN(C)CCCNC(=O)c1ccc2oc3cc4ccccc4c(=O)n3c2c1`, for which the GI50 in experiment [1] was over 50 µM; in [10] it was 15.4 µM; in [3], over 50 µM; in [4], 11.2 µM; in experiment [5], over 50 µM; in experiment [6], 23.8 µM. Also, the GI50 in experiment [7] was over 50 µM; in experiment [8] it was over 50 µM; in experiment [9], 37.5 µM. Also, the TGI in experiment [1] is over 50 µM; in experiment [10] it was 46.8 µM; in experiment [3], over 50 µM; in [4], 28.8 µM; in [5] it was over 50 µM; in [6] it was over 50 µM. The TGI in experiment [7], in [8] and in [9] was over 50 µM in each case.
On to `NC(=O)/C(=C\c1ccncc1)c1cccc2ccccc12`, for which the TGI in [1], in experiment [10], in experiment [3], in [4], in experiment [5] and in [6] was over 100 µM each time. For the same compound, the TGI in experiment [7], in [8] and in experiment [9] was over 100 µM each time.
In the case of `CC(C)CC1C(=O)N2CCC[C@H]2C2(O)O[C@](NC(=O)C3C=C4c5cccc6[nH]c(Br)c(c56)C[C@H]4N(C)C3)(C(C)C)C(=O)N12` (stereo partly specified), the GI50 in experiment [1] was 29.7 µM; in experiment [3] it was 3.7 µM; in experiment [4], 4.57 µM; in [5], 3 µM; in [6], 7.05 µM; in [7], 25.7 µM. The values for the GI50 in [8] and in experiment [9] were 4.92 µM and 9.4 µM, respectively. The TGI in experiment [1], in [10], in [3], in experiment [4], in experiment [5] and in experiment [6] was over 100 µM in each case. For the same compound, the TGI in experiment [7], in experiment [8] and in experiment [9] was over 100 µM throughout.
Take `O=C(NCCc1ccccc1)C(c1ccccc1)(c1ccccc1)c1ccccc1`: the GI50 was 1.46 µM in experiment [1]; 4.13 µM in experiment [3]; 8.97 µM in experiment [4]; 31 µM in experiment [5]; 5.91 µM in [6]; 5.43 µM in [7]. The values for the GI50 in [8] and in [9] were 26 µM and 2.93 µM, respectively. Moreover, the TGI in [1] is 14.6 µM; in experiment [3], 27.1 µM; in experiment [4], 21.4 µM; in [5], over 100 µM; in [6], over 100 µM; in [7] it was over 100 µM. In addition, the values for the TGI in experiment [8] and in [9] were over 100 µM and 12.4 µM, respectively.
Turning to `Nc1ccccc1SC(CC(=O)c1ccccc1)c1ccc([N+](=O)[O-])cc1` (stereo unspecified), the GI50 was 12.1 µM in experiment [1]; 4.3 µM in [10]; 15.8 µM in [2]; 15.6 µM in experiment [4]; 10.3 µM in [5]; 8.51 µM in [6]. Further, the GI50 in [7] was 17.2 µM; in experiment [8], 3.31 µM; in experiment [9], 4.51 µM. The TGI came to 24.5 µM in experiment [1]; 14.6 µM in [10]; 29.6 µM in experiment [2]; 29.4 µM in experiment [4]; 22.4 µM in [5]; 22.4 µM in experiment [6]. Besides, the TGI in experiment [7] was 31 µM; in experiment [8], 16.1 µM; in experiment [9] it was 16.9 µM.
As to `COc1cc2c(c(OC)c1O)-c1ccc(OC)c(=O)cc1[C@@H](NC(=O)C(F)(F)F)CC2`, the TGI was over 100 µM in experiment [1]; 14.1 µM in experiment [2]; over 100 µM in experiment [3]; 0.0668 µM in experiment [4]; 0.588 µM in experiment [5]; over 100 µM in [6]. Moreover, the TGI in experiment [7], in experiment [8] and in [9] was over 100 µM throughout.
Regarding `O=C1/C(=C\c2ccc(F)cc2)CN(C(=O)c2ccc([N+](=O)[O-])cc2)C/C1=C\c1ccc(F)cc1`, the GI50 in experiment [1] was 1.98 µM; in experiment [10], 0.517 µM; in [2] it was 1.95 µM; in [4], 1.69 µM; in [5], 2.14 µM; in experiment [6], 1.31 µM. Also, the values for the GI50 in experiment [7], in [8] and in experiment [9] were 1.89 µM, 0.389 µM and 1.55 µM, respectively. Further, the TGI in experiment [1] came to 6.27 µM; in experiment [10] it was 3.52 µM; in experiment [2], 3.76 µM; in experiment [4] it was 3.84 µM; in experiment [5], 14.5 µM; in [6], 4.31 µM. Besides, the TGI in experiment [7] was 4.32 µM; in experiment [8] it was 4.19 µM; in experiment [9], 3.97 µM.
Take `Cc1ccc(S(=O)(=O)Oc2ccc([N+](=O)[O-])cc2[N+](=O)[O-])cc1`: the GI50 was 12.4 µM in experiment [1]; 3.63 µM in [10]; 17.9 µM in experiment [3]; 3.26 µM in experiment [4]; 5.15 µM in experiment [5]; 3.61 µM in experiment [6]. In addition, the GI50 in [7] was 3.83 µM; in experiment [8] it was 4.13 µM; in [9], 3.83 µM. The TGI in experiment [1] worked out at 30.9 µM; in experiment [10], 58.7 µM; in [3], 34.4 µM; in [4], 12.5 µM; in [5], 26.5 µM; in experiment [6] it was 17.9 µM. In addition, the values for the TGI in [7], in [8] and in [9] were 14.6 µM, 23.2 µM and 14.5 µM, respectively.
Consider `O=C(N/N=C/c1ccccc1O)C(O)(c1ccccc1)c1ccccc1`, for which the GI50 in experiment [1] is 15 µM; in [10], 4.46 µM; in experiment [2] it was 17.4 µM; in experiment [3] it was 3.6 µM; in [4], over 100 µM; in experiment [5] it was over 100 µM. Besides, the GI50 is 3.54 µM in experiment [6], over 100 µM in [7] and 4.77 µM in experiment [9]. In addition, the TGI in experiment [1], in [10], in [2], in experiment [3], in experiment [4] and in experiment [5] was over 100 µM throughout. Besides, the TGI in experiment [6], in experiment [7] and in experiment [9] was over 100 µM throughout.
With `N=C(N)/N=C(\N)c1c(-c2cc(O)ccc2O)nc2sccn12`, the GI50 in [1] was 44.6 µM; in experiment [10], 36.5 µM; in experiment [3], 98.6 µM; in experiment [4], over 100 µM; in [5] it was 26.7 µM; in experiment [6], 26 µM. Further, the GI50 in experiment [7] is 19.9 µM; in [8] it was 37.8 µM; in experiment [9] it was 46.1 µM. For the same compound, the TGI was over 100 µM in experiment [1]; over 100 µM in experiment [10]; over 100 µM in experiment [3]; over 100 µM in experiment [4]; over 100 µM in experiment [5]; 74.8 µM in [6]. In addition, the TGI in [7] was 38.9 µM; in experiment [8] it was over 100 µM; in [9] it was over 100 µM.
As to `CCOC(=O)C(Cc1c[nH]c2ccc([N+](=O)[O-])cc12)(NC(C)=O)C(=O)OCC`, the GI50 in experiment [1] is 40.5 µM; in experiment [10], over 1000 µM; in experiment [2], over 1000 µM; in experiment [3], over 1000 µM; in [6] it was over 1000 µM; in experiment [7], 143 µM. The GI50 in experiment [8] is 81 µM; in experiment [9], 134 µM. For the same compound, the TGI in experiment [1] was over 1000 µM; in experiment [10], over 1000 µM; in [2], over 1000 µM; in experiment [3], over 1000 µM; in experiment [6], over 1000 µM; in [7], over 802 µM. Moreover, the results for the TGI in experiment [8] and in [9] were over 1000 µM and over 564 µM, respectively.
